Assay in all cases: relative viability (nuclei count vs DMSO), 5 days (fraction); higher = more cells survive
Compound in the assay “RU-SKI 43 + Vorinostat”: CC[C@@H](C)CNCC(=O)N1CCC2=C([C@@H]1COC3=CC=CC(=C3)C)C=CS2 [RU-SKI 43] + O=C(CCCCCCC(=O)Nc1ccccc1)NO [Vorinostat] (partner 1 µM)
The procedure, abridged: (§1)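 Medians of duplicate plates are given as relative viability. That measure is the nuclei count in treated wells divided by the count in vehicle wells. Counts were taken on 4× images of lung cancer cell lines in 1536-well plates, 5 days after pin-tool dosing the day after seeding with one drug alone or a fixed anchor-drug dose plus five library-drug doses (not always all listed) in √10 steps.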

Compound in the assay “Irinotecan + Bortezomib”: CCc1c2c(nc3ccc(OC(=O)N4CCC(N5CCCCC5)CC4)cc13)-c1cc3c(c(=O)n1C2)COC(=O)[C@]3(O)CC [Irinotecan] + CC(C)C[C@H](NC(=O)[C@H](Cc1ccccc1)NC(=O)c1cnccn1)B(O)O [Bortezomib] (partner 0.002 µM)
The procedure, abridged: as §1

Compound in the assay “MK-8033 + Bortezomib”: Cn1cc(-c2cnc3ccc4ccc(CS(=O)(=O)NCc5ccccn5)cc4c(=O)c3c2)cn1 [MK-8033] + CC(C)C[C@H](NC(=O)[C@H](Cc1ccccc1)NC(=O)c1cnccn1)B(O)O [Bortezomib] (partner 0.002 µM)
A digest of the protocol:
as §1

Compound in the assay “MK-8033 + OSI-027”: Cn1cc(-c2cnc3ccc4ccc(CS(=O)(=O)NCc5ccccn5)cc4c(=O)c3c2)cn1 [MK-8033] + COc1cccc2cc(-c3nc([C@H]4CC[C@H](C(=O)O)CC4)n4ncnc(N)c34)[nH]c12 [OSI-027] (partner 0.5 µM)
The procedure, abridged:
as §1

The values below come from the supplement of paper PMC10307832.

As for UMC-11, the relative viability was found to be 0.386 with RU-SKI 43 + Vorinostat (first compound 0.1 µM); 0.328 with RU-SKI 43 + Vorinostat (first compound 0.3162 µM); 0.473 with RU-SKI 43 + Vorinostat (first compound 1 µM); 0.407 with RU-SKI 43 + Vorinostat (first compound 3.162 µM); 0.352 in the assay with RU-SKI 43 + Vorinostat (first compound 10 µM); 0.595 with Irinotecan + Bortezomib (first compound 0.6325 µM). Also, the relative viability with Irinotecan + Bortezomib (first compound 2 µM) stood at 0.519; with Irinotecan + Bortezomib (first compound 6.325 µM) it was 0.184; with Irinotecan + Bortezomib (first compound 20 µM), 0.139; in the assay with MK-8033 + Bortezomib (first compound 0.02 µM), 0.673; with MK-8033 + Bortezomib (first compound 0.06325 µM), 0.664; with MK-8033 + Bortezomib (first compound 0.2 µM) it was 0.831. The relative viability was 0.665 with MK-8033 + Bortezomib (first compound 0.6325 µM); 0.664 with MK-8033 + Bortezomib (first compound 2 µM); 0.483 with MK-8033 + OSI-027 (first compound 0.02 µM); 0.447 with MK-8033 + OSI-027 (first compound 0.06325 µM); 0.381 with MK-8033 + OSI-027 (first compound 0.2 µM); 0.457 with MK-8033 + OSI-027 (first compound 2 µM).
